Reference: the NIST ThermoML archive (doi:10.1016/j.jct.2017.06.005)
± gives the expanded uncertainty stated by the source.

Conditions: 369.8 K; Liquid; Ebulliometric method (Recirculating still)

vapor or sublimation pressure: 100 ± 2 kPa
Structure (SMILES): CCCO [propan-1-ol]
